Inhibition in vivo and IC50 data for 22 compounds are collected here from ChEMBL document CHEMBL1128591, “1,2-Diarylcyclopentenes as selective cyclooxygenase-2 inhibitors and orally active anti-inflammatory agents” (J Med Chem, 1995).

Experiment [1] is filed under the species Rattus norvegicus. In words: animal or person. Conditions: read-out: Inhibition.
The species entered for experiment [2] is Rattus norvegicus. The experiment can be described thus: animal or person. The following applies: read-out: Inhibition. The source holds these as a separate data set.
The target of experiment [3] is Prostaglandin G/H synthase 1 (Homo sapiens, UniProt P23219).
Prostaglandin G/H synthase 1, sequence (P23219 whole entry): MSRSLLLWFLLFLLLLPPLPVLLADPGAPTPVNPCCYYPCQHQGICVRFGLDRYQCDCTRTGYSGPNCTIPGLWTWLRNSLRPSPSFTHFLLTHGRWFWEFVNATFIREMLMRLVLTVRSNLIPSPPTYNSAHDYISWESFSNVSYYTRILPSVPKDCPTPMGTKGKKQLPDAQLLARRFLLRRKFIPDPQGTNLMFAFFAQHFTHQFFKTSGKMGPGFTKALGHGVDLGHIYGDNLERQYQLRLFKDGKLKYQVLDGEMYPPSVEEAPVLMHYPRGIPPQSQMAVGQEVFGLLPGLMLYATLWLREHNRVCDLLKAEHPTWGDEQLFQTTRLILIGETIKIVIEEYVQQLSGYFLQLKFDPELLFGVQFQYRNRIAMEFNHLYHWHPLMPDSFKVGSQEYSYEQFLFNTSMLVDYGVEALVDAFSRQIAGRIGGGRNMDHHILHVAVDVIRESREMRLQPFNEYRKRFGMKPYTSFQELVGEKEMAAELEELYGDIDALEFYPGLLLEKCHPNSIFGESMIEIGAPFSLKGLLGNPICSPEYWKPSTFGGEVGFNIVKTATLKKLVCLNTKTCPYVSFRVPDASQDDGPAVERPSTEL

For the compound `COc1ccc(C2=C(c3ccc(S(C)(=O)=O)cc3)CCC2)cc1`, in experiment [1], the inhibition in vivo at 1 mg/kg is 0%. Further, the inhibition in vivo at 30 mg/kg in experiment [2] was 42.7%. Usually IC50 stands for the midpoint of a concentration-inhibition curve. High values mean weaker potency in that assay, low ones greater potency in that assay. Turning to `CN(C)c1ccc(C2=C(c3ccc(S(C)(=O)=O)cc3)CCC2)cc1Cl`, 37.7 µM corresponded to half-maximal inhibition in experiment [3] (IC50). In experiment [3], `NS(=O)(=O)c1ccc(C2=C(c3ccc(C(F)(F)F)c(F)c3)CCC2)cc1` displayed an IC50 of 14.5 µM.

Regarding `COc1ccc(C2=C(c3ccc(S(N)(=O)=O)cc3)CCC2)cc1Cl`, the inhibition in vivo at 1 mg/kg in experiment [1] amounted to 25%. Besides, the inhibition in vivo at 30 mg/kg in experiment [2] worked out at 32%. `NS(=O)(=O)c1ccc(C2=C(c3ccc(Cl)c(Cl)c3)CCC2)cc1`: the inhibition in vivo at 1 mg/kg in experiment [1] came to 83%. Moreover, the inhibition in vivo at 30 mg/kg in experiment [2] is 31%. `CN(C)c1ccc(C2=C(c3ccc(S(N)(=O)=O)cc3)CCC2)cc1Cl` registered an IC50 in experiment [3] of 1.8 µM.

For `COc1ccc(C2=C(c3ccc(S(N)(=O)=O)cc3)CCC2)cc1F`, the inhibition in vivo at 1 mg/kg in experiment [1] was 25%.

Consider `COc1ccc(C2=C(c3ccc(S(N)(=O)=O)cc3)CCC2)cc1`, for which, in experiment [2], the inhibition in vivo at 30 mg/kg came out at 10%. Take `CS(=O)(=O)c1ccc(C2=C(c3ccc(Cl)c(Cl)c3)CCC2)cc1`: in experiment [1], the inhibition in vivo at 1 mg/kg came to 45%. Regarding `NS(=O)(=O)c1ccc(C2=C(c3ccc(F)c(Cl)c3)CCC2)cc1`, the inhibition in vivo at 1 mg/kg in experiment [1] turned out to be 81.5%. For the same compound, in experiment [2], the inhibition in vivo at 30 mg/kg was determined as 43.3%. Further, in experiment [3], the IC50 was 5.1 µM. `NS(=O)(=O)c1ccc(C2=C(c3ccc(F)cc3)CCC2)cc1`: in experiment [1], the inhibition in vivo at 1 mg/kg worked out at 79%. For the same compound, the inhibition in vivo at 30 mg/kg in experiment [2] came to 45.3%. Regarding `CS(=O)(=O)Nc1cc2c(cc1Sc1ccc(F)cc1F)C(=O)CC2`, in experiment [3], the IC50 is > 10 µM.

As for `COc1c(Cl)cc(C2=C(c3ccc(S(C)(=O)=O)cc3)CCC2)cc1Cl`, in experiment [3], the IC50 was > 100 µM. In experiment [3], `COc1c(Cl)cc(C2=C(c3ccc(S(N)(=O)=O)cc3)CCC2)cc1Cl` showed an IC50 of 71.6 µM.

In the case of `CS(=O)(=O)c1ccc(C2=C(c3ccc(F)c(Cl)c3)CCC2)cc1`, in experiment [2], the inhibition in vivo at 30 mg/kg was 40%.

For the compound `CS(=O)(=O)c1ccc(C2=C(c3ccc(C(F)(F)F)c(F)c3)CCC2)cc1`, in experiment [3], the IC50 was > 100 µM. Still for that read-out and setting: the result for `NS(=O)(=O)c1ccc(C2=C(c3cc(F)c(F)c(F)c3)CCC2)cc1` reads > 100 µM. In the case of `CS(=O)(=O)c1ccc(C2=C(c3ccc(Cl)cc3)CCC2)cc1`, in experiment [1], the inhibition in vivo at 1 mg/kg turned out to be 21%. Also, the inhibition in vivo at 30 mg/kg in experiment [2] worked out at 49%. With `CS(=O)(=O)c1ccc(C2=C(c3cc(F)c(F)c(F)c3)CCC2)cc1`, the IC50 in experiment [3] was > 100 µM. For `CS(=O)(=O)c1ccc(C2=C(c3ccc(F)c(C(F)(F)F)c3)CCC2)cc1`, in experiment [3], the IC50 was > 100 µM. As to `NS(=O)(=O)c1ccc(C2=C(c3ccc4c(c3)OCO4)CCC2)cc1`, 1.9 µM corresponded to half-maximal inhibition in experiment [3] (IC50). In the case of `CS(=O)(=O)c1ccc(C2=C(c3ccc(F)cc3)CCC2)cc1` [SC-57666], the inhibition in vivo at 1 mg/kg in experiment [1] was determined as 29.3%. The inhibition in vivo at 30 mg/kg in experiment [2] stood at 45.3%.
